Publication PMC10692721, “Drug discovery for heart failure targeting myosin-binding protein C” (The Journal of Biological Chemistry, 2023)
“Also recorded” adds a separate entry of the source. *1 amine or outer side, *2 acyl side, *3 side chain or, on linkers, in order; H or OH if unused. Where a SMILES comes first, the peptide text is derived from it. Bridges are numbered along the chain shown (N, C = ends). [ ]: non-standard residue; d: D form. The star is where a group is joined. Orn(4R-OH,5R-OH) = O=C([C@H](C[C@@H](O)[C@@H](O)N[*:3])N[*:1])[*:2]; Tetradecanoyl(10R,12S-Me2) = CC[C@H](C)C[C@H](C)CCCCCCCCC(=O)*; hTyr(3S-OH,4S-OH) = N[C@H](C(=O)O)[C@H](O)[C@@H](O)c1ccc(O)cc1; Gln(3R-OH) = NC(=O)C[C@@H](O)[C@H](N)C(=O)O; Pro(3S-OH) = O=C(O)[C@H]1NCC[C@@H]1O; Hyp = O=C(O)[C@@H]1C[C@@H](O)CN1

What was measured:
[1] = system: TMR-cC0-C2 (C0-C2 fragment of human cMyBP-C); assay: FLT-TMR concentration-response assay (FLT of TMR on cC0-C2, no actin); type: binding; settings: 60 μM compound
Procedure, shortened: (§1)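 Hits tested at eight concentrations (0.5–100 μM) and read on a high-throughput fluorescence lifetime plate reader. Hill fits applied only under certain conditions.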

[2] = system: PKA-phosphorylated TMR-cC0-C2 (cC0-C2#P); assay: FLT-TMR concentration-response assay, PKA-phosphorylated cC0-C2; type: binding, human; settings: 60 μM compound
Procedure, shortened: as §1

[3] = system: TMR-fC1-C2 (C1-C2 of fast skeletal MyBP-C); assay: FLT-TMR concentration-response assay, fC1-C2; type: binding; settings: 60 μM compound
Procedure, shortened: as §1

[4] = system: FMAL-actin/TMR-cC0-C2 interaction; assay: FLT-FRET concentration-response assay, FMAL-actin plus TMR-cC0-C2; type: binding, human; settings: unphosphorylated cC0-C2
Procedure, shortened: as §1

[5] = system: FMAL-actin/PKA-phosphorylated TMR-cC0-C2 interaction; assay: FLT-FRET concentration-response assay, FMAL-actin plus PKA-phosphorylated TMR-cC0-C2; type: binding, human; settings: phosphorylated cC0-C2
Protocol: Compounds identified as initial hits were further examined to determine the concentration–response curves for seven conditions ([1]): FMAL-actin alone identified actin-binding compounds that alter the FLT of FMAL-actin ([2]).
Fluorescence lifetime (FLT) measurements were acquired using a high-throughput FLT plate reader (Fluorescence Innovations, Inc) ([14], [27]), provided by Photonic Pharma LLC. […] The observed waveforms were analyzed as described previously ([15], [28]).
The primary hits were dissolved in DMSO to make a 10 mM stock solution, which was serially diluted in 96-well mother plates. Hits were screened at eight concentrations (0.5–100 μM). […] Compounds (1 μl) were transferred from the mother plates into 384-well plates using a Mosquito HV liquid handler (TTP Labtech Ltd, Hertfordshire, UK). The same procedure of dispensing as for the pilot screening was applied in the concentration-response assays. Concentration dependence of the FLT-FRET (E/EDMSO) or FLT-TMR (Δτ) change data was fit to a Hill equation only under certain conditions to help guide the eye (Fig. 4).

[6] = system: FMAL-actin/TMR-fC1-C2 interaction; assay: FLT-FRET concentration-response assay, FMAL-actin plus TMR-fC1-C2; type: binding
Procedure, shortened: as §1

[7] = system: bovine cardiac (left ventricular) myofibrils; assay: Cardiac myofibril ATPase assay; type: biochemical; settings: 50 μM compound, pCa 8 to pCa 4
Protocol: Rabbit psoas and bovine cardiac myofibrils were prepared as described in our previous study ([17]). An enzyme-coupled, NADH-linked ATPase assay was used to measure skeletal and cardiac myofibril ATPase activity in 96-well microplates at 23 °C. Ionic strength was maintained below 0.2 M, so myofilaments remained insoluble and stable ([32]). To achieve optimal enzymatic activities, buffers for skeletal and cardiac myofibrils differed slightly ([33], [34]): skeletal in 50 mM MOPS, 100 mM KCl, 5 mM MgCl2, 1 mM EGTA, pH 7.0; cardiac in 20 mM MOPS, 35 mM NaCl, 5 mM MgCl2, 1 mM EGTA, pH 7.0. Each well in the microplate contained an assay mix of 0.84 mM phosphoenolpyruvate, 0.17 mM NADH, 10 U/vol pyruvate kinase, 20 U/vol lactate dehydrogenase. The concentration of free Ca^2+ was controlled by EGTA buffering ([35]). Myofibrils were dispensed in microplates with a multichannel pipette and were incubated with assay mix plus compound of interest for 20 min at 23 °C. The concentration of myofibrils used was 0.01 mg/ml for skeletal and 0.05 mg/ml for cardiac myofibrils. The assay was started upon the addition of ATP, at a final concentration of 2.1 mM (total volume to 200 μl), and absorbance was recorded at 340 nm in a SpectraMax Plus microplate spectrophotometer from Molecular Devices. The steady-state myofibrillar ATPase rate was measured from NADH oxidation, measured as the rate of decrease in absorption at 340 nm for 30 min, with absorption data collected every 15 s. All data and statistical analysis of steady-state kinetics were conducted with the OriginPro program. The results were fitted with the Hill equation:(6) […] is the ATPase rate and n is the Hill coefficient. ATPase activity is reported on the μmol ATP/mg protein/min scale. Average data are presented as mean ± SD. Sample means are derived from three different myofibril preps (N = 3), each done in duplicate (n = 6). The effects of compounds on ATPase activity of myofibrils were determined in the presence of 50 μM compound, across a 12-point pCa range from 4.0 (activation) to 8.0 (relaxation). The calcium sensitivity (pCa50) was determined by fitting the curves to the Hill equation. […] The normalized ATPase activity of the selected compounds can be found in Figure 6.

[8] = system: rabbit fast skeletal (psoas) myofibrils; assay: Skeletal myofibril ATPase assay; type: biochemical; settings: 50 μM compound, pCa 8 to pCa 4
Protocol: Rabbit psoas and bovine cardiac myofibrils were prepared as described in our previous study ([17]). An enzyme-coupled, NADH-linked ATPase assay was used to measure skeletal and cardiac myofibril ATPase activity in 96-well microplates at 23 °C. Ionic strength was maintained below 0.2 M, so myofilaments remained insoluble and stable ([32]). To achieve optimal enzymatic activities, buffers for skeletal and cardiac myofibrils differed slightly ([33], [34]): skeletal in 50 mM MOPS, 100 mM KCl, 5 mM MgCl2, 1 mM EGTA, pH 7.0; cardiac in 20 mM MOPS, 35 mM NaCl, 5 mM MgCl2, 1 mM EGTA, pH 7.0. Each well in the microplate contained an assay mix of 0.84 mM phosphoenolpyruvate, 0.17 mM NADH, 10 U/vol pyruvate kinase, 20 U/vol lactate dehydrogenase. The concentration of free Ca^2+ was controlled by EGTA buffering ([35]). Myofibrils were dispensed in microplates with a multichannel pipette and were incubated with assay mix plus compound of interest for 20 min at 23 °C. The concentration of myofibrils used was 0.01 mg/ml for skeletal and 0.05 mg/ml for cardiac myofibrils. The assay was started upon the addition of ATP, at a final concentration of 2.1 mM (total volume to 200 μl), and absorbance was recorded at 340 nm in a SpectraMax Plus microplate spectrophotometer from Molecular Devices. The steady-state myofibrillar ATPase rate was measured from NADH oxidation, measured as the rate of decrease in absorption at 340 nm for 30 min, with absorption data collected every 15 s. All data and statistical analysis of steady-state kinetics were conducted with the OriginPro program. The results were fitted with the Hill equation:(6) V=V0+(Vmax/1+10^−n∗^(pCa50−pCa)) where V is the ATPase rate and n is the Hill coefficient.
ATPase activity is reported on the μmol ATP/mg protein/min scale. Average data are presented as mean ± SD. Sample means are derived from three different myofibril preps (N = 3), each done in duplicate (n = 6).
The effects of compounds on ATPase activity of myofibrils were determined in the presence of 50 μM compound, across a 12-point pCa range from 4.0 (activation) to 8.0 (relaxation). The calcium sensitivity (pCa50) was determined by fitting the curves to the Hill equation. In all experiments, a 1% DMSO-only control was included. The normalized ATPase activity of the selected compounds can be found in Figure 6.

## CC[C@H](C)C[C@H](C)CCCCCCCCC(=O)N[C@H]1C[C@@H](O)[C@@H](O)NC(=O)[C@@H]2[C@@H](O)CCN2C(=O)[C@H]([C@H](O)CC(N)=O)NC(=O)[C@H]([C@H](O)[C@@H](O)c2ccc(O)cc2)NC(=O)[C@@H]2C[C@@H](O)CN2C(=O)[C@H]([C@@H](C)O)NC1=O [Pneumocandin B0] ({Tetradecanoyl(10R,12S-Me2)}-[Orn(4R-OH,5R-OH)]T[Hyp][hTyr(3S-OH,4S-OH)][Gln(3R-OH)][Pro(3S-OH)]; lactam 1-C)
[1]
  cC0-C2/cC0-C2#P (ratio of FLT changes): 0.9
  cC0-C2 FLT change (% change from DMSO, FLT of TMR-MyBP-C): 12.4%
[2]
  cC0-C2#P FLT change (% change from DMSO, FLT of TMR-MyBP-C): 13.2%
[3]
  cC0-C2/fC1-C2 (ratio of FLT changes): 1.1
  fC1-C2 FLT change (% change from DMSO, FLT of TMR-MyBP-C): 11.4%
[4]
  effect on FLT-FRET / binding between FMAL-actin and TMR-cC0-C2 (in words): increased the binding
[5]
  effect on FLT-FRET / binding between FMAL-actin and PKA-phosphorylated TMR-cC0-C2 (in words): decreasing the binding
[6]
  effect on FLT-FRET / binding between FMAL-actin and TMR-fC1-C2 (in words): increased the binding
[6]; skeletal MyBP-C
  increase in actin binding (fC1-C2-actin FRET): 24%
[7]
  effect on cardiac MF ATPase activity (in words): ATPase-activating effect
[8]
  effect on skeletal MF ATPase activity (in words): inhibitory effect; also recorded: affected ATPase
